Results: ChEMBL document CHEMBL1201862, “PubChem BioAssay data set” (2004)
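Briefly, cells in 96-well plates were exposed to five compound concentrations for 48 h, and endpoints were estimated by linear interpolation. GI50 = concentration required for 50% inhibition of growth.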 The source made the active and inactive calls. Cut-off read from the data, not from the text of the source: active = GI50 up to about 1.1 µM and inactive = higher.

Legend:
Experiment in all cases: DTP human tumour cell line panel, 48 h
MOLT-4 = system: MOLT-4
BT-549 = system: BT-549
ACHN = system: ACHN
HOP-92 = system: HOP-92
K562 = system: K562
NCI-H23 = system: NCI-H23
HL-60 = system: HL-60
786-0 = system: 786-0
HT-29 = system: HT-29
MCF7 = system: MCF7
PC-3 = system: PC-3
RXF 393 = system: RXF 393
SK-MEL-5 = system: SK-MEL-5
SNB-75 = system: SNB-75
HCT-15 = system: HCT-15
COLO 205 = system: COLO 205
EKVX = system: EKVX
CCRF-CEM = system: CCRF-CEM
HCC 2998 = system: HCC 2998

SMILES	GI50 (MOLT-4)	GI50 (BT-549)	GI50 (ACHN)	GI50 (HOP-92)	GI50 (K562)	GI50 (NCI-H23)	GI50 (HL-60)	GI50 (786-0)	GI50 (HT-29)	GI50 (MCF7)	GI50 (PC-3)	GI50 (RXF 393)	GI50 (SK-MEL-5)	GI50 (SNB-75)	GI50 (HCT-15)	GI50 (COLO 205)	GI50 (EKVX)	GI50 (CCRF-CEM)	GI50 (HCC 2998)
CN(Cc1cc(Cl)cc(Cl)c1O)Cc1c(O)ccc2ccccc12	20.9 µM (inactive)	17 µM (inactive)	17.3 µM (inactive)	20.1 µM (inactive)	26 µM (inactive)	18.4 µM (inactive)	25.4 µM (inactive)	21 µM (inactive)	27.9 µM (inactive)	17.5 µM (inactive)	16.6 µM (inactive)	13.5 µM (inactive)	17.5 µM (inactive)	16.7 µM (inactive)	17.6 µM	16.9 µM (inactive)	20 µM (inactive)		
CC1CN=C(NCc2ccccc2)S1 (centres undefined)	> 100 µM (inactive)	> 100 µM (inactive)	> 100 µM (inactive)		48.2 µM (inactive)	> 100 µM (inactive)	65 µM (inactive)		> 100 µM (inactive)	> 100 µM (inactive)		4.17 µM (inactive)		> 100 µM (inactive)	> 100 µM		> 100 µM (inactive)	> 100 µM (inactive)	> 100 µM (inactive)
CC(=O)Nc1ccc2nc(N)n[n+]([O-])c2c1	> 100 µM (inactive)	> 100 µM (inactive)	> 100 µM (inactive)		> 100 µM (inactive)	> 100 µM (inactive)	> 100 µM (inactive)	> 100 µM (inactive)	> 100 µM (inactive)	> 100 µM (inactive)	> 100 µM (inactive)		> 100 µM (inactive)	41.4 µM (inactive)	> 100 µM	> 100 µM (inactive)	> 100 µM (inactive)	> 100 µM (inactive)	
CC1OC(OC2C(CO)OC(O[C@H]3CC[C@@]4(C)C(=CC[C@H]5[C@@H]6C[C@@H]7O[C@](O)(CC[C@H](CO)COC8OC(CO)C(O)C(O)C8O)[C@@H](C)[C@@H]7[C@@]6(C)CC[C@@H]54)C3)C(OC3OC(C)C(O)C(O)C3O)C2O)C(O)C(O)C1O (some centres undefined)	> 100 µM (inactive)	> 100 µM (inactive)	> 100 µM (inactive)	> 100 µM (inactive)	> 100 µM (inactive)	> 100 µM (inactive)		> 100 µM (inactive)	> 100 µM (inactive)	> 100 µM (inactive)	> 100 µM (inactive)	> 100 µM (inactive)	> 100 µM (inactive)	> 100 µM (inactive)	54 µM	> 100 µM (inactive)	> 100 µM (inactive)	> 100 µM (inactive)	> 100 µM (inactive)
CN(C)S(=O)(=O)Nc1nnc(S(N)(=O)=O)s1	> 100 µM (inactive)	> 100 µM (inactive)	> 100 µM (inactive)	> 100 µM (inactive)	> 100 µM (inactive)	> 100 µM (inactive)	> 100 µM (inactive)	> 100 µM (inactive)	> 100 µM (inactive)	> 100 µM (inactive)	> 100 µM (inactive)	> 100 µM (inactive)	> 100 µM (inactive)	> 100 µM (inactive)	> 100 µM	> 100 µM (inactive)	> 100 µM (inactive)		> 100 µM (inactive)
COc1cc(/C=C2\N=C(c3ccccc3)N(/N=C/c3cc4cc(C)ccc4nc3Cl)C2=O)cc(OC)c1OC	20.6 µM (inactive)	52.2 µM (inactive)	34.2 µM (inactive)	54.6 µM (inactive)	35 µM (inactive)		10.5 µM (inactive)	60.4 µM (inactive)	38.4 µM (inactive)	27.4 µM (inactive)	18.1 µM (inactive)		37.9 µM (inactive)	17.1 µM (inactive)	32.4 µM	24.5 µM (inactive)	54.5 µM (inactive)		18.8 µM (inactive)
Cc1cc(Nc2ccc(/N=N/c3ccc(O)c4ncccc34)cc2)nc(C)n1	3.93 µM (inactive)	16.4 µM (inactive)	8.22 µM (inactive)	9.75 µM (inactive)	3.78 µM (inactive)	7.24 µM (inactive)	3.97 µM (inactive)	12.6 µM (inactive)	31.2 µM (inactive)	11 µM (inactive)	14.4 µM (inactive)	12.7 µM (inactive)	10.8 µM (inactive)	9.35 µM (inactive)	4.37 µM	20.8 µM (inactive)	34.8 µM (inactive)	2.75 µM (inactive)	
O=C(Cn1c2c(c3ccccc31)CCCC2)N1CCCCC1	> 100 µM (inactive)	> 100 µM (inactive)	> 100 µM (inactive)	> 100 µM (inactive)		> 100 µM (inactive)	> 100 µM (inactive)	> 100 µM (inactive)	> 100 µM (inactive)	> 100 µM (inactive)	> 100 µM (inactive)		> 100 µM (inactive)		> 100 µM	> 100 µM (inactive)	> 100 µM (inactive)		> 100 µM (inactive)
C#CCOC(=O)C(N)C(C)O (centres undefined)	> 100 µM (inactive)	> 100 µM (inactive)	> 100 µM (inactive)	> 100 µM (inactive)	> 100 µM (inactive)	> 100 µM (inactive)	> 100 µM (inactive)	> 100 µM (inactive)	> 100 µM (inactive)	> 100 µM (inactive)	> 100 µM (inactive)	> 100 µM (inactive)	> 100 µM (inactive)	> 100 µM (inactive)		> 100 µM (inactive)	> 100 µM (inactive)	> 100 µM (inactive)	
Nc1ncnc2c1ncn2Cc1cccc(CCl)c1	15.2 µM (inactive)	12.8 µM (inactive)	14.8 µM (inactive)	19.7 µM (inactive)	21.9 µM (inactive)	12.6 µM (inactive)	15 µM (inactive)	14.4 µM (inactive)	22.8 µM (inactive)	10 µM (inactive)	14.7 µM (inactive)	3.88 µM (inactive)	16.1 µM (inactive)	30.1 µM (inactive)	17.9 µM		19.3 µM (inactive)		
COC(=O)C12C(=O)CC3CCC1C32C(=O)OC (centres undefined)	> 100 µM (inactive)	> 100 µM (inactive)	> 100 µM (inactive)		> 100 µM (inactive)	> 100 µM (inactive)		> 100 µM (inactive)	> 100 µM (inactive)	> 100 µM (inactive)	> 100 µM (inactive)	> 100 µM (inactive)	> 100 µM (inactive)	> 100 µM (inactive)	> 100 µM	> 100 µM (inactive)	> 100 µM (inactive)	> 100 µM (inactive)	> 100 µM (inactive)
COc1cc2c(cc1OC)CC(N=[N+]=[N-])c1cc(OC)c(OC)cc1/C=C\2 (centres undefined)	41 µM (inactive)	0.826 µM (active)	59 µM (inactive)	12.9 µM (inactive)	27.2 µM (inactive)		10 µM (inactive)	34.1 µM (inactive)	44.5 µM (inactive)	49.7 µM (inactive)	30.8 µM (inactive)		23.8 µM (inactive)	16.6 µM (inactive)	40.1 µM	37.4 µM (inactive)	43.2 µM (inactive)		81.7 µM (inactive)
Cc1ccc2nc(Cl)c(/C=N/N3C(=O)/C(=C/c4ccc(N(C)C)cc4)N=C3c3ccccc3)cc2c1	24.4 µM (inactive)	> 100 µM (inactive)	76.9 µM (inactive)	71.3 µM (inactive)	59.4 µM (inactive)		32.4 µM (inactive)	> 100 µM (inactive)	63.7 µM (inactive)	29 µM (inactive)	47.6 µM (inactive)		48.5 µM (inactive)	24 µM (inactive)	55.2 µM	51.1 µM (inactive)	80.9 µM (inactive)	29.9 µM (inactive)	66.2 µM (inactive)
O=C(c1cccs1)N(C(=O)N1CCCCC1)c1ccccc1	> 100 µM (inactive)	> 100 µM (inactive)	> 100 µM (inactive)		> 100 µM (inactive)	> 100 µM (inactive)	> 100 µM (inactive)	> 100 µM (inactive)	> 100 µM (inactive)	> 100 µM (inactive)	52.1 µM (inactive)	35 µM (inactive)	> 100 µM (inactive)	3.28 µM (inactive)	> 100 µM	> 100 µM (inactive)	14.8 µM (inactive)	> 100 µM (inactive)	
Nc1cc(N)c(/N=N/c2cccc3c(S(=O)(=O)O)cccc23)cc1/N=N/c1cc([N+](=O)[O-])ccc1O	20.3 µM (inactive)	31.6 µM (inactive)	22.2 µM (inactive)	35.6 µM (inactive)	38.7 µM (inactive)	45 µM (inactive)		42.1 µM (inactive)	43.8 µM (inactive)	32.6 µM (inactive)	18.5 µM (inactive)	70.3 µM (inactive)	17.6 µM (inactive)	49.1 µM (inactive)	22.1 µM	38.5 µM (inactive)	> 100 µM (inactive)		23.2 µM (inactive)
O=S(=O)(O)C1CCC(O)C2NCCCC21 (centres undefined)	> 100 µM (inactive)	> 100 µM (inactive)	> 100 µM (inactive)	> 100 µM (inactive)	> 100 µM (inactive)		20.7 µM (inactive)	> 100 µM (inactive)	> 100 µM (inactive)	> 100 µM (inactive)	> 100 µM (inactive)	> 100 µM (inactive)	> 100 µM (inactive)	> 100 µM (inactive)	> 100 µM	> 100 µM (inactive)	> 100 µM (inactive)		> 100 µM (inactive)
CC1ON2CCCC2[C@H]1C(=O)N1C2CC3CCC2(CS1(=O)=O)C3(C)C (some centres undefined)	> 100 µM (inactive)	> 100 µM (inactive)	> 100 µM (inactive)	> 100 µM (inactive)	> 100 µM (inactive)	> 100 µM (inactive)	> 100 µM (inactive)	> 100 µM (inactive)	> 100 µM (inactive)	> 100 µM (inactive)	> 100 µM (inactive)	> 100 µM (inactive)	> 100 µM (inactive)	> 100 µM (inactive)	> 100 µM	> 100 µM (inactive)	> 100 µM (inactive)	> 100 µM (inactive)	
